Experimental data as given in the NIST ThermoML archive (doi:10.1016/j.jct.2016.06.001).

Settings: Liquid, Frequency=8 MHz, Pulse-echo method

CCC(C)O (configuration not stated) [butan-2-ol]
Settings | speed of sound [m/s]
253.15 K, 100 kPa | 1374.6
253.15 K, 5155 kPa | 1400.3
253.15 K, 10194 kPa | 1424.8
253.15 K, 15178 kPa | 1448.1
253.15 K, 20139 kPa | 1470.5
253.15 K, 25051 kPa | 1491.9
253.15 K, 30449 kPa | 1514.4
273.15 K, 100 kPa | 1301.2
273.15 K, 5150 kPa | 1329.2
273.15 K, 10187 kPa | 1355.8
273.15 K, 15226 kPa | 1381.1
273.15 K, 20096 kPa | 1404.6
273.15 K, 25052 kPa | 1427.7
273.15 K, 30040 kPa | 1450
293.15 K, 102 kPa | 1229.1
293.15 K, 5048 kPa | 1258.9
293.15 K, 10078 kPa | 1287.7
293.15 K, 15045 kPa | 1314.6
293.15 K, 20093 kPa | 1340.9
293.15 K, 25164 kPa | 1366
293.15 K, 29995 kPa | 1389
313.15 K, 100 kPa | 1156.3
313.15 K, 5081 kPa | 1189.2
313.15 K, 10051 kPa | 1220
313.15 K, 15034 kPa | 1249.2
313.15 K, 20050 kPa | 1277.2
313.15 K, 25148 kPa | 1304.3
313.15 K, 30041 kPa | 1329.3
333.15 K, 101 kPa | 1081.4
333.15 K, 5111 kPa | 1117.8
333.15 K, 10069 kPa | 1151.4
333.15 K, 15039 kPa | 1183
333.15 K, 20109 kPa | 1213.5
333.15 K, 25122 kPa | 1242.1
333.15 K, 30086 kPa | 1269.2
353.15 K, 119 kPa | 1003.7
353.15 K, 5050 kPa | 1043.6
353.15 K, 10149 kPa | 1081.5
353.15 K, 15213 kPa | 1116.5
353.15 K, 20040 kPa | 1147.9
353.15 K, 25218 kPa | 1179.7
353.15 K, 30032 kPa | 1207.7

OCCCO [propan-1,3-diol]
Settings | speed of sound [m/s]
293.15 K, 100 kPa | 1635.2
293.15 K, 5030 kPa | 1650
293.15 K, 10062 kPa | 1664.6
293.15 K, 15066 kPa | 1678.9
293.15 K, 20096 kPa | 1692.9
293.15 K, 24997 kPa | 1706.3
293.15 K, 30029 kPa | 1719.9
313.15 K, 99 kPa | 1589.5
313.15 K, 5048 kPa | 1605.1
313.15 K, 10031 kPa | 1620.3
313.15 K, 15138 kPa | 1635.4
313.15 K, 20064 kPa | 1649.8
313.15 K, 25191 kPa | 1664.4
313.15 K, 30167 kPa | 1678.3
333.15 K, 100 kPa | 1544.1
333.15 K, 5058 kPa | 1560.3
333.15 K, 10054 kPa | 1576.2
333.15 K, 15024 kPa | 1591.7
333.15 K, 20153 kPa | 1607.2
333.15 K, 25135 kPa | 1622
333.15 K, 30136 kPa | 1636.6
353.15 K, 101 kPa | 1497.6
353.15 K, 5038 kPa | 1514.6
353.15 K, 10023 kPa | 1531.3
353.15 K, 15089 kPa | 1547.8
353.15 K, 20158 kPa | 1563.9
353.15 K, 25109 kPa | 1579.3
353.15 K, 30076 kPa | 1594.4

CC(C)O [propan-2-ol]
Settings | speed of sound [m/s]
253.15 K, 99 kPa | 1301
253.15 K, 5138 kPa | 1328.8
253.15 K, 10106 kPa | 1354.9
253.15 K, 15136 kPa | 1380
253.15 K, 20143 kPa | 1404
253.15 K, 25229 kPa | 1427.5
253.15 K, 30036 kPa | 1448.9
273.15 K, 100 kPa | 1227.9
273.15 K, 5275 kPa | 1258.8
273.15 K, 10173 kPa | 1286.4
273.15 K, 15164 kPa | 1313.3
273.15 K, 20289 kPa | 1339.6
273.15 K, 25102 kPa | 1363.3
273.15 K, 30264 kPa | 1387.7
293.15 K, 100 kPa | 1157.4
293.15 K, 5085 kPa | 1189.7
293.15 K, 10183 kPa | 1220.8
293.15 K, 15273 kPa | 1250.2
293.15 K, 20239 kPa | 1277.4
293.15 K, 25220 kPa | 1303.6
293.15 K, 30278 kPa | 1328.9
313.15 K, 100 kPa | 1087.2
313.15 K, 5177 kPa | 1123.1
313.15 K, 10104 kPa | 1155.7
313.15 K, 15187 kPa | 1187.5
313.15 K, 20126 kPa | 1216.6
313.15 K, 25138 kPa | 1244.7
313.15 K, 30110 kPa | 1271.1
333.15 K, 100 kPa | 1016
333.15 K, 5048 kPa | 1054.5
333.15 K, 10038 kPa | 1090.6
333.15 K, 15065 kPa | 1124.6
333.15 K, 20102 kPa | 1156.5
333.15 K, 25093 kPa | 1186.4
333.15 K, 30014 kPa | 1214.4
353.15 K, 100 kPa | 940.5
353.15 K, 5080 kPa | 983.88
353.15 K, 10091 kPa | 1023.9
353.15 K, 15114 kPa | 1060.8
353.15 K, 20132 kPa | 1095.3
353.15 K, 25164 kPa | 1127.6
353.15 K, 30380 kPa | 1159.2
